In patent publication US20240217978A1 (CHONG KUN DANG PHARMACEUTICAL CORP., priority 2021, published 2024):

target: human adenosine A2a receptor (Homo sapiens (Human), UniProt P29274); assay: A2a receptor binding affinity, [3H]-NECA radioligand binding test; details: [3H]-NECA 37 nM; membrane from HEK-293 cells transfected with human adenosine A2a receptor
Method: The binding affinity of the compounds according to Examples of the present invention to the human adenosine A2a receptor was evaluated by entrusting SB drug discovery in the UK.
A radioligand binding test was conducted by using [3H]-NECA (5′-N-[adenine-2,8-3H]-ethylcarboxamidoadenosine) and an adenosine A2a membrane. As the adenosine A2a membrane, a cell membrane prepared from HEK-293 cells transfected with human adenosine A2a receptor was used. The membrane used for the test was prepared by incubating with a radioligand until equilibrium was reached. In order to separate the radioligand-bound membrane, the unbound radioligand was separated by using Packard filtermate Harverster and glass filter plates.
10 μL of test compound dissolved in binding buffer (50 mM Tris, 10 mM MgCl2, 1 mM EDTA pH 7.4) and 20 μL of [3H]-NECA (final concentration of 37 nM) or reference inhibitor was mixed with 20 μL of A2a membrane in an unbound 96-well plate and incubated at room temperature for one hour. Prior to filtration, a 96-well harvest filter plate was coated with 0.33% polyethylenimine for 30 minutes and then washed with assay buffer. The binding reaction was transferred to the filter plate and washed three times with wash buffer. The dish was then dried, scintillant was added, and radioactivity was counted in a scintillation counter (Topcount NXT, Packard).
The binding affinity IC50 (μM) for the human adenosine A2a receptor obtained according to the above experimental method is shown in the table below.

Chain of human adenosine A2a receptor (P29274 whole entry): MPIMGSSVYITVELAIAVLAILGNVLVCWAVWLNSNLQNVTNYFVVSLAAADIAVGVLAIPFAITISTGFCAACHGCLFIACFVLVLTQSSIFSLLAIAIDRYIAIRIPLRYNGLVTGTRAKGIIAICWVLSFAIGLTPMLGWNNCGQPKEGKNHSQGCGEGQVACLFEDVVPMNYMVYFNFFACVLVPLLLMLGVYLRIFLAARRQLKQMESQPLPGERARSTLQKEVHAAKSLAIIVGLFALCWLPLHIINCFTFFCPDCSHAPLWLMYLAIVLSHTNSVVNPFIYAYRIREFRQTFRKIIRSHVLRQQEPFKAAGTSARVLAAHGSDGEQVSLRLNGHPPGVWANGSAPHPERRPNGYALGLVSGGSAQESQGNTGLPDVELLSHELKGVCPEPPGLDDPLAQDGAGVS

Structure (SMILES)	IC50 [nM]
Nc1nc(N[C@@H](Cc2ccccc2)C(=O)N2CCC(Cc3ccccc3)CC2)nc2nc(-c3ccco3)nn12 [Example 2]	1
Nc1nc(N[C@@H](Cc2ccccc2)C(=O)N2CCC(COc3ccccc3)CC2)nc2nc(-c3ccco3)nn12 [Example 3, (S)-2-((7-amino-2-(furan-2-yl)-[1,2,4]triazolo[1,5-a][1,3,5]triazin-5-yl)amino)-1-(4-(phenoxymethyl)piperidin-1-yl)-3-phenylpropan-1-one]	1
Nc1nc(N[C@@H](Cc2ccccc2)C(=O)N2CCN(CC(F)(F)F)CC2)nc2nc(-c3ccco3)nn12 [Example 4]	0.458
CC(C)C(=O)N1CCN(C(=O)[C@H](Cc2ccccc2)Nc2nc(N)n3nc(-c4ccco4)nc3n2)CC1 [Example 5, (S)-2-((7-amino-2-(furan-2-yl)-[1,2,4]triazolo[1,5-a][1,3,5]triazin-5-yl)amino)-1-(4-isobutyrylpiperazin-1-yl)-3-phenylpropan-1-one]	1.26
Nc1nc(N[C@@H](Cc2ccccc2)C(=O)N2CCN(S(=O)(=O)c3ccccc3)CC2)nc2nc(-c3ccco3)nn12 [Example 6, (S)-2-((7-amino-2-(furan-2-yl)-[1,2,4]triazolo[1,5-a][1,3,5]triazin-5-yl)amino)-3-phenyl-1-(4-(phenylsulfonyl)piperazin-1-yl)propan-1-one]	0.214
Nc1nc(N[C@H](C(=O)N2CCN(c3ccc(F)cc3F)CC2)c2ccccc2)nc2nc(-c3ccco3)nn12 [Example 7, (S)-2-((7-amino-2-(furan-2-yl)-[1,2,4]triazolo[1,5-a][1,3,5]triazin-5-yl)amino)-1-(4-(2,4-difluorophenyl)piperazin-1-yl)-2-phenylethan-1-one]	6.72
Nc1nc(N[C@@H](CO)C(=O)N2CCN(c3ccc(F)cc3F)CC2)nc2nc(-c3ccco3)nn12 [Example 8, (S)-2-((7-amino-2-(furan-2-yl)-[1,2,4]triazolo[1,5-a][1,3,5]triazin-5-yl)amino)-1-(4-(2,4-difluorophenyl)piperazin-1-yl)-3-hydroxypropan-1-one]	1.92
C[C@H](Nc1nc(N)n2nc(-c3ccco3)nc2n1)C(=O)N1CCN(c2ccc(F)cc2F)CC1 [Example 9, (S)-2-((7-amino-2-(furan-2-yl)-[1,2,4]triazolo[1,5-a][1,3,5]triazin-5-yl)amino)-1-(4-(2,4-difluorophenyl)piperazin-1-yl)propan-1-one]	2.42
CC(C)[C@H](Nc1nc(N)n2nc(-c3ccco3)nc2n1)C(=O)N1CCN(c2ccc(F)cc2F)CC1 [Example 10, (S)-2-((7-amino-2-(furan-2-yl)-[1,2,4]triazolo[1,5-a][1,3,5]triazin-5-yl)amino)-1-(4-(2,4-difluorophenyl)piperazin-1-yl)-3-methylbutan-1-one]	0.357
Nc1nc(N[C@H](C(=O)N2CCN(c3ccc(F)cc3F)CC2)C2CCCCC2)nc2nc(-c3ccco3)nn12 [Example 11, (S)-2-((7-amino-2-(furan-2-yl)-[1,2,4]triazolo[1,5-a][1,3,5]triazin-5-yl)amino)-2-cyclohexyl-1-(4-(2,4-difluorophenyl)piperazin-1-yl)ethan-1-one]	0.1
Nc1nc(N2CCC[C@H]2C(=O)N2CCN(c3ccc(F)cc3F)CC2)nc2nc(-c3ccco3)nn12 [Example 12, (S)-(1-(7-amino-2-(furan-2-yl)-[1,2,4]triazolo[1,5-a][1,3,5]triazin-5-yl)pyrrolidin-2-yl)(4-(2,4-difluorophenyl)piperazin-1-yl)methanone]	1.43
Nc1nc(N[C@@H](Cc2ccccc2)C(=O)N2CCN(Cc3ccc(F)cc3F)CC2)nc2nc(-c3ccco3)nn12 [Example 13, (S)-2-((7-amino-2-(furan-2-yl)-[1,2,4]triazolo[1,5-a][1,3,5]triazin-5-yl)amino)-1-(4-(2,4-difluorobenzyl)piperazin-1-yl)-3-phenylpropan-1-one]	0.1
Nc1nc(N[C@H](C(=O)N2CCN(Cc3ccc(F)cc3F)CC2)c2ccccc2)nc2nc(-c3ccco3)nn12 [Example 14, (S)-2-((7-amino-2-(furan-2-yl)-[1,2,4]triazolo[1,5-a][1,3,5]triazin-5-yl)amino)-1-(4-(2,4-difluorobenzyl)piperazin-1-yl)-2-phenylethan-1-one]	0.368
Nc1nc(NCC(=O)N2CCN(Cc3ccc(F)cc3F)CC2)nc2nc(-c3ccco3)nn12 [Example 15, 2-((7-amino-2-(furan-2-yl)-[1,2,4]triazolo[1,5-a][1,3,5]triazin-5-yl)amino)-1-(4-(2,4-difluorobenzyl)piperazin-1-yl)ethan-1-one]	6.02
Nc1nc(N2CCC[C@H]2C(=O)N2CCN(Cc3ccc(F)cc3F)CC2)nc2nc(-c3ccco3)nn12 [Example 16, (S)-(1-(7-amino-2-(furan-2-yl)-[1,2,4]triazolo[1,5-a][1,3,5]triazin-5-yl)pyrrolidin-2-yl)(4-(2,4-difluorobenzyl)piperazin-1-yl)methanone]	1.95

The next lines start with the values.

IC50 [nM]	Structure (SMILES)
0.135	Nc1nc(N[C@@H](Cc2ccccc2)C(=O)N2CCN(Cc3cccc(F)c3)CC2)nc2nc(-c3ccco3)nn12 [Example 17, (S)-2-((7-amino-2-(furan-2-yl)-[1,2,4]triazolo[1,5-a][1,3,5]triazin-5-yl)amino)-1-(4-(3-fluorobenzyl)piperazin-1-yl)-3-phenylpropan-1-one]
0.125	Nc1nc(N[C@@H](Cc2ccccc2)C(=O)N2CCN(Cc3ccc(F)cc3)CC2)nc2nc(-c3ccco3)nn12 [Example 18, (S)-2-((7-amino-2-(furan-2-yl)-[1,2,4]triazolo[1,5-a][1,3,5]triazin-5-yl)amino)-1-(4-(4-fluorobenzyl)piperazin-1-yl)-3-phenylpropan-1-one]
15	Nc1nc(N[C@@H](Cc2ccccc2)C(=O)N2CCC(N3CCOCC3)CC2)nc2nc(-c3ccco3)nn12 [Example 19, (S)-2-((7-amino-2-(furan-2-yl)-[1,2,4]triazolo[1,5-a][1,3,5]triazin-5-yl)amino)-1-(4-morpholinopiperidin-1-yl)-3-phenylpropan-1-one]
20	Nc1nc(N[C@@H](Cc2ccccc2)C(=O)N2CCCN(Cc3ccccc3)CC2)nc2nc(-c3ccco3)nn12 [Example 20, (S)-2-((7-amino-2-(furan-2-yl)-[1,2,4]triazolo[1,5-a][1,3,5]triazin-5-yl)amino)-1-(4-benzyl-1,4-diazepan-1-yl)-3-phenylpropan-1-one]
30	C[C@H](Nc1nc(N)n2nc(-c3ccco3)nc2n1)C(=O)N1CCN(Cc2ccccc2)CC1 [Example 21, (S)-2-((7-amino-2-(furan-2-yl)-[1,2,4]triazolo[1,5-a][1,3,5]triazin-5-yl)amino)-1-(4-benzylpiperazin-1-yl)propan-1-one]
11	C[C@H](Nc1nc(N)n2nc(-c3ccco3)nc2n1)C(=O)N1CCN(Cc2ccccc2F)CC1 [Example 22, (S)-2-((7-amino-2-(furan-2-yl)-[1,2,4]triazolo[1,5-a][1,3,5]triazin-5-yl)amino)-1-(4-(2-fluorobenzyl)piperazin-1-yl)propan-1-one]
61	C[C@H](Nc1nc(N)n2nc(-c3ccco3)nc2n1)C(=O)N1CCN(Cc2ccc(F)cc2)CC1 [Example 23, (S)-2-((7-amino-2-(furan-2-yl)-[1,2,4]triazolo[1,5-a][1,3,5]triazin-5-yl)amino)-1-(4-(4-fluorobenzyl)piperazin-1-yl)propan-1-one]
